Columns and labels:
Assay type in all cases: cell-based
[1] = tested on: Micrococcus luteus BKM Ac-2230; experiment: Antibacterial activity, serial dilutions in liquid MH medium
Protocol: (§1) The antibacterial activity of the compounds was determined against strains of gram-positive bacteria such as Staphylococcus aureus 209P, Enterococcus faecalis BKM B-871, Micrococcus luteus BKM Ac-2230, Bacillus subtilis BKM B-501, and gram-negative bacteria such as Pseudomonas aeruginosa PAO1 and Escherichia coli KM MGU C-600. BKM strains were acquired from the All-Russia Collection of Microorganisms at the Institute for Biochemistry and Physiology of Microorganisms, Russian Academy of Sciences. Strain Staphylococcus aureus 209P was acquired from the Collection of Microorganisms at the Department of microbiology of the Faculty of Biology of Lomonosov Moscow State University, and Pseudomonas aeruginosa PAO1 was acquired from the Collection of Microorganisms at the Institute of Bioorganic Chemistry of the Russian Academy of Sciences.
(§2) The main parameters characterizing the antibacterial activity are the minimal inhibitory concentration (MIC) and minimal bactericidal concentration (MBC). […] MBC is the least concentration that causes the death of all cells.
(§3) MIC was quantified by inhibiting culture growth in a liquid medium with serial dilutions of compounds using a modified procedure [Amsterdam, D., 1966. “Susceptibility testing of antimicrobials in liquid media,” pp. 52-111. In Loman, V., ed. Antibiotics in laboratory medicine, 4th ed. Williams and Wilkins, Baltimore].
(§4) Bacteria were cultured and tested on an MH liquid medium (Mueller-Hinton medium: a dry extract of beef broth, 4 g/L; starch, 1.5 g/L; casein hydrolyzate, 17.5 g/L; Sigma-Fluka Catalog No. 70192) at 37° C., 100% humidity, and under stirring. Cultures (within 4 to 7 passages after thawing) in the exponential growth phase were used for tests.
(§5) All tested compounds absorb light at 595 nm, a wavelength used for evaluating bacterial culture growth. Therefore, a correction for absorption was applied in estimating the optical density of bacterial suspensions for each compound with account for its concentration in the well. Bacterial growth inhibition (GI) as percentage after 20 hours of incubating cells with compounds was derived from the optical density (A) measured in every well at a wavelength of 595 nm using the equation: GIi=[(Act−Ac0)−(Ait−Ai0)]×100/(Act−Ac0), (1) wherein the subscripts have the following meanings: i denotes the well number, c denotes a control well with bacteria whereto the tested compound is not inserted, 0 refers to the measurement taken immediately once the tested compound was inserted to the well, and t refers to the measurement taken 20 hours after the compound was inserted.
(§6) The protocol for the determination of experimental antibacterial activity of the tested compounds was as follows. A cryovial with the test strain culture in a medium with 7% DMSO stored in liquid nitrogen, was rapidly defrosted, and 1.5 mL of the fresh MH medium was inoculated with 100 μL of the cell suspension. Cells were grown for one day at 37° C. and stirred on an orbital shaker at 150 rpm. The morphologic features of the strain and the absence of contamination with foreign bacteria were verified by: (a) inoculation on an agarized (15 g/L agar) MH medium and observation of the shape and color of the grown colonies and (b) examination of characteristic morphologic features under a microscope (Mikmed-2, LOMO, Russia) equipped with a 40× objective lens. Further, the bacteria were cultured in 1 mL of the liquid MH medium at 37° C. under stirring. The cells were reseeded every day. Cell cultures were used in tests starting with 3rd reseeding and ending with 6th one.
(§7) For testing, 5 μL of a bacterial suspension in the stationary growth phase was transferred to 1 mL of a sterile MH medium and incubated until the exponential growth phase was attained (3 to 5 h, 37° C., stirring at 150 rpm). To estimate the microorganism concentration, the optical density (A) of the resulting bacterial culture was measured at a wavelength of 595 nm. […]

[2] = tested on: Bacillus subtilis BKM B-501; experiment: as above; conditions: MH medium, 20 h, 37° C., 100% growth inhibition
Protocol: as §1, §2, §3, §4, §5, §6, §7

[3] = tested on: Staphylococcus aureus No. 3797 (MRSA); experiment: Antibacterial specific activity, twofold dilutions, visual growth evaluation; conditions: St. aur No. 3797 MRSA; 36° C., 24 hours
Protocol: (§8) The specific activity of compounds also was determined against bacteria strains such as Staphylococcus aureus No. 25923 ATCC (American Type Culture Collection); Staphylococcus aureus No. 100 KC; Staphylococcus epidermidis No. 533; Enterococcus faecalis No. 559; Enterococcus faecium No. 569, Staphylococcus aureus No. 5 (MRSA), Staphylococcus aureus No. 3797 (MRSA). Staphylococcus aureus was cultured on the Trypticase Soy Agar (BBL) commercially available dry medium. Enterococcus faecalis was cultured on the Columbia Agar (BBL) commercially available dry medium. These media were sterilized by autoclaving at 121° C. for 15 min. Bacterial inoculum was constant and was 5×10^5 CFU/ml (10^5 CFU/0.2 ml). For water-soluble compounds, wells from 2nd through 8th were added with the solvent (water) in an amount of 15 μL per well, then the 1st well was added with 30 μL of the stock solution of the tested compound in […] with a concentration of […], and the concentration was adjusted to 0.007×10^3 M by serial twofold dilutions. A 10-μL portion was taken from every well, and 190 μL of the bacterial culture (10^5 CFU) was added per well. For DMSO-soluble compounds, wells from 2nd through 8th were added with the solvent (DMSO) in an amount of 10 μL per well, then the 1st well was added with 20 μL of the stock solution of the tested compound in […] with a concentration of […], and the concentration was adjusted to 0.039×10^3 M by serial twofold dilutions. A 2-μL portion was taken from each well, and 198 μL of the bacterial culture (10^5 CFU) was added per well.
(§9) The control comprised wells free of tested compounds (culture growth control). In addition, purity control of nutritional media and solvents was used. Plates were incubated in a thermostat at 36° C. for 24 hours.
(§10) Culture growth was evaluated visually by comparison of how microorganisms grew in the presence of tested compounds and in the absence of them. MIC was set equal to the last dilution of a tested agent which suppressed bacterial culture growth.

[4] = tested on: Staphylococcus aureus No. 5 (MRSA); experiment: as above; conditions: St. aur No. 5 MRSA; 36° C., 24 hours
Protocol: as §8, §9, §10

[5] = tested on: Enterococcus faecalis No. 559; experiment: as above; conditions: E. faecalis 559; 36° C., 24 hours
Protocol: as §8, §9, §10

[6] = tested on: Vancomycin-resistant Enterococcus faecium 569; experiment: as above; conditions: Vancomycin-resistant E. faecium 569; 36° C., 24 hours
Protocol: as §8, §9, §10

[7] = tested on: Staphylococcus aureus No. 25923 ATCC; experiment: as above; conditions: S. aureus 25923; 36° C., 24 hours
Protocol: as §8, §9, §10

[8] = tested on: Staphylococcus aureus No. 100 KC; experiment: as above; conditions: S. aureus 100 KC; 36° C., 24 hours
Protocol: as §8, §9, §10

Escherichia coli 4300 = experiment: as above; conditions: E. coli 4300; 36° C., 24 hours
Protocol: [Worded in the source for another organism; this organism is reported under the same test.] as §8, §9, §10

[9] = tested on: Staphylococcus epidermidis No. 533; experiment: as above; conditions: S. epidermis 533; 36° C., 24 hours
Protocol: as §8, §9, §10

[10] = tested on: Herpes Simplex Virus type 2 strain G (No. VR-734 ATCC); experiment: Antiviral activity, virus cytopathogenic action in Vero cells; design: key: 0: CPA (cytopathogenic action) is not detected; 1: up to 25% virus-infected monolayer; from 25% to 50%; 3: from 50% to 75%; 4: from 75% to 100%; conditions: 48 hours
Protocol: (§11) […] used in the study were used Herpes Simplex Virus type 1 (the Collection of Microorganisms at the Scientific Research Institute of Virology, strain EC), Herpes Simplex Virus type 2 strain G (No. VR-734 ATCC), and human cytomegalovirus strain AD169 (No. VR-538 ATCC). Herpes Simplex viruses type 1 and type 2 were cultured in Vero cells. The cells were incubated in MEM Eagle growth medium (MEM, BioloT, St-Petersburg, 1.3.3) supplemented with 10% fetal bovine serum (BioloT, St-Petersburg, 1.3.12) in Sanyo MCO-15AC gas-flow thermostat (37° C., 5% CO2) (Tokyo, Japan). A seed dose was 2×10^5 cells/ml in the starting inoculum or 2×10^4 cells/well. Herpes Simplex viruses were cultured under the same conditions in the MEM medium without serum (maintenance medium). Starting viral titers were 10^7 TCID50/ml.
(§12) For DMSO-soluble preparations, stock solutions were prepared in a concentration of 10 mM in DMSO. For water-soluble preparations, a stock solution prepared had the same concentration in the MEM medium (Minimal Essential Medium) for cell cultures. To control cytotoxicity (see below), the stock solution was diluted in the medium to a concentration of 100 μM and ten-fold serial dilutions of the preparations were made in the MEM medium (for DMSO-soluble compounds—in the MEM medium comprising 3% DMSO). The following concentrations of the preparations were used in the study of […]: if toxicity was not found, the concentrations of 100 μM preparations were 100, 10 and 1 μM; if toxicity was detected, the concentrations of 100 μM preparations were 10, 1, and 0.1 μM. Acyclovir (10 μg/ml) was used for Herpes Simplex viruses of both types as a reference preparation to control the viral model validity.
(§13) To study antiviral activity, plate wells with a cell monolayer were added with the preparations in an amount of 0.1 ml/well. To compensate a reduction in the concentration of the preparations, which takes place in the following addition of viruses, twofold concentrations of compounds (i.e. 200, 20 and 2 or 20, 2 and 0.2 μM for […] concentrations of 100 μM preparations, respectively) were used, incubated for an hour and then were infected with the examined 0.1 ml/well viruses in doses 1, 10 and 100 TCID50 (50% tissue infectious dose).
(§14) The virus-specific cytogenic action was manifested in an increase in the size of cells, their rounding, and detachment from a substrate. These morphological characteristics served as their marked difference from the cells subjected to a toxic action of high concentrations of the examined preparations. The latter acquired spindle-like shape, lost contacts with neighboring cells of the monolayer, and their boundaries became more distinct.
(§15) Intensity of the virus-specific changes in the cells were semi-quantified using a 4-score system: 0—CPA (cytopathogenic action) is not detected; 1—up to 25% virus-infected monolayer; 2—from 25% to 50%; 3—from 50% to 75%; and 4—from 75% to 100%. The antiviral activity of a compound was evaluated according to their ability to reduce the manifestation of cytopathogenic action in the plate wells compared to the control values. Differences with the control values by 1 score and more were considered to be significant.

[11] = tested on: Herpes Simplex Virus type 1 strain EC; experiment: as above; design: key: 0: CPA (cytopathogenic action) is not detected; 1: up to 25% virus-infected monolayer; from 25% to 50%; 3: from 50% to 75%; 4: from 75% to 100%; conditions: 48 hours
Protocol: as §11, §12, §13, §14, §15

With “6,7-bis-(Methyl Ester N^α—(N^G-Nitro)Arginyl)-Protohemin (IX) [III]” the MIC ([1]; MH medium, 20 h, 37° C., 100% growth inhibition) was 1.6 µM, the MBC ([1]; no colonies on agarized MH medium) was 6.3 µM and the MIC [2] was 12.5 µM. It also gave an MIC [3] of 25 µM and an MIC [4] of 25 µM.
Work on “6,7-bis-[(Amide N^α-L-Arginyl)-L-Seryl]-Protohemin (IX) [XXIII]” yielded an MIC [3] of over 50.0 µM, an MIC [5] of over 50.0 µM and an MIC [6] of over 50.0 µM. It also gave an MIC [7] of over 50.0 µM, an MIC [8] of over 50.0 µM and an MIC (Escherichia coli 4300) of over 50.0 µM. It also gave an MIC [4] of over 50.0 µM and an MIC [9] of over 50.0 µM.
For “6,7-bis-[(Amide N^α-L-Seryl)-L-Arginyl]-Protohemin (IX) [XX]”, the MIC [3] was 1.3 µM, the MIC [5] was 1.56 µM and the MIC [6] was 6.25 µM. For the same molecule, the MIC [7] was 1.3 µM, the MIC [8] was 0.65 µM and the MIC (Escherichia coli 4300) was over 50.0 µM. For the same molecule, the MIC [4] was 3.12 µM and the MIC [9] was 1.56 µM.
In the case of “6,7-bis-[(Diamide N^α-L-Seryl)-L-glutamyl]-Protohemin (IX) [XII]”, the “manifestation of the virus CPA” value ([10]; HSV-2, virus dose 1, concentration 0.1 μM) is reported as 0.5 scores, the “manifestation of the virus CPA” value ([10]; HSV-2, virus dose 1, concentration 1 μM) is reported as 0.5 scores and the “manifestation of the virus CPA” value ([10]; HSV-2, virus dose 1, concentration 10 μM) is reported as 0^1. For the same molecule, the “manifestation of the virus CPA” value ([10]; HSV-2, virus dose 10, concentration 0.1 μM) was 2 (from 25% to 50%), the “manifestation of the virus CPA” value ([10]; HSV-2, virus dose 10, concentration 1 μM) was 1.5 scores and the “manifestation of the virus CPA” value ([10]; HSV-2, virus dose 10, concentration 10 μM) was 1^1 (up to 25% virus-infected monolayer). The “manifestation of the virus CPA” value ([10]; HSV-2, virus dose 100, concentration 0.1 μM) was 3 (from 50% to 75%), the “manifestation of the virus CPA” value ([10]; HSV-2, virus dose 100, concentration 1 μM) was 3 (from 50% to 75%) and the “manifestation of the virus CPA” value ([10]; HSV-2, virus dose 100, concentration 10 μM) was 3 (from 50% to 75%).
“6,7-bis-[(Methyl Ester N^α-L-Arginyl)-L-Seryl]-Protohemin (IX) [XXI]” was tested, and the MIC [3] was 1.56 µM, the MIC [5] was 1.56 µM and the MIC [6] was 6.25 µM. The MIC [7] was 0.39 µM, the MIC [8] was 0.65 µM and the MIC (Escherichia coli 4300) was over 50.0 µM. For the same molecule, the MIC [4] was 0.65 µM and the MIC [9] was 0.78 µM.
For Nc1nc2c(ncn2COCCO)c(=O)[nH]1 [Acyclovir, reference compound], the “manifestation of the virus CPA” value ([10]; HSV-2, virus dose 1, 10 μg/ml) was 0^1, the “manifestation of the virus CPA” value ([10]; HSV-2, virus dose 10, 10 μg/ml) was 0^1 and the “manifestation of the virus CPA” value ([10]; HSV-2, virus dose 100, 10 μg/ml) was 0^1. For the same molecule, the “manifestation of the virus CPA” value ([11]; HSV-1, virus dose 1, 10 μg/ml) was 0^1, the “manifestation of the virus CPA” value ([11]; HSV-1, virus dose 10, 10 μg/ml) was 0^1 and the “manifestation of the virus CPA” value ([11]; HSV-1, virus dose 100, 10 μg/ml) was 0^1.
